Data: patent publication US8969590B1, “Autotaxin inhibitors” (University of Memphis Research Foundation, priority 2007, dated 2015)

Experiments:
ATX (autotaxin) = biological target: T1, ATX (autotaxin) (Homo sapiens, UniProt Q13822); assay: ATX inhibition assay: ATX-catalyzed FS-3 hydrolysis, fluorescence, concentrated conditioned medium from MDA MB-435 cells as ATX source; type: biochemical; settings: for % ATX Activity at 10 μM: 10 μM compound, FS-3 substrate, read at 1 hour, normalized to vehicle control, mean ± S.D. of at least three wells
T1 construct: conditioned serum-free medium (CCM) from MDA MB-435 cells as the source of ATX; endogenous in cells; host or cells: MDA-MB-435 cells (secreted into serum-free conditioned medium, concentrated ~10 fold)
Protocol: The efficacy of these compounds was determined by evaluating fluorescence of autotaxin at specific wavelengths. The test protocol was as follows:
In terms of ATX inhibition analysis determinations, MDA-MB-435 cells were cultured at 37° C. and 5% CO2 in Dulbecco's Modified Eagle Medium (DMEM) (MediaTech, Herndon, Va.) containing 5% fetal bovine serum (Hyclone, Logan, Utah), 100 U/ml penicillin, 100 μg/ml streptomycin (Hyclone, Logan, Utah) and 292 μg/ml L-glutamine (Hyclone, Logan, Utah). Cells were grown to ˜80% confluence at which time the cells were washed twice with sterile phosphate buffered saline prior to the addition of serum free DMEM containing L-glutamine. Conditioned medium was collected after 24-30 hours, supplemented with 20% ethylene glycol and was clarified by centrifugation at 3000×g and 4° C. for 10 min. The media was concentrated ˜10 fold and buffer exchanged into Tris (50 mM, pH 7.4) containing 20% ethylene glycol using an Amicon 8050 cell fitted with a PM30 filter (Millipore, Billerica, Mass.). Aliquots of concentrated conditioned media were stored at 4° C. until needed.
ATX inhibition was assayed using FS-3 (Echelon Biosciences, Inc., Salt Lake City, Utah, USA) as a substrate and ˜10 times concentrated conditioned serum-free medium (CCM) from MDA MB-435 cells as the source of ATX. Assays were performed in 96-well plates with CCM comprising one-third of the total volume and final FS-3 and charcoal-stripped fatty acid free BSA concentrations of 1 and 30 μM in assay buffer (1 mM each CaCl2 and MgCl2, 5 mM KCl, 140 mM NaCl, 50 mM Tris pH 8.0). Fluorescence was read at 5 minute intervals by a Synergy2 system (BioTek, Winooski, Vt.) with excitation and emission wavelengths of 485 and 538 nm, respectively. Results are shown at 1 hour, at which point all fluorescence changes as a function of time were linear. Fluorescence readings were normalized to vehicle control after subtraction of fluorescence in the absence of CCM. Data are shown as the mean±S.D. of at least three wells.

ATX = ATX (Homo sapiens, UniProt Q13822); settings: prior art; cited from earlier work

Row | Compound | % ATX Activity at 10 μM (ATX (autotaxin)) [%] | also measured
1 | CCn1c(SCC(=O)Nc2ccc(C(C)=O)cc2)nc2nc3c(cc2c1=O)CCCC3 [Compound 7921385] | 21 ± 6 | 
2 | N[C@@H](Cc1c[nH]cn1)C(=O)O [L-histidine] |  | Concentration required for ATX inhibition efficacy (ATX): millimolar concentrations were required for any efficacy
3 | O=C(O)c1ccc2c(c1)C(=O)N(c1cccc(C(=O)Nc3cccc(Cl)c3)c1)C2=O [Compound 5711925] | 48 ± 5 | 
4 | O=C(O)c1ccc(CN2C(=O)c3ccc(C(=O)c4ccc5c(c4)C(=O)N(Cc4ccc(C(=O)O)cc4)C5=O)cc3C2=O)cc1 [Compound 5761473] | 46 ± 6 | 
5 | O=C(O)c1cccc(NC(=O)c2ccc3c(c2)C(=O)N(c2ccc(/N=N/c4ccccc4)cc2)C3=O)c1 [Compound 5564949] | 45 ± 10 | inhibition at 10 µM (ATX (autotaxin); 10 μM concentration, read-out: ATX inhibition (reduction of ATX-catalyzed FS-3 hydrolysis)): 51%
6 | O=C(O)c1cc(C(=O)O)cc(N2C(=O)c3ccc(C(=O)c4ccc5c(c4)C(=O)N(c4cc(C(=O)O)cc(C(=O)O)c4)C5=O)cc3C2=O)c1 [Compound 5186522] | 49 ± 10 | 
7 | O=C(NN1C(=O)c2ccc(C(=O)c3ccc4c(c3)C(=O)N(NC(=O)c3ccncc3)C4=O)cc2C1=O)c1ccncc1 [Compound 5538444] | 31 ± 4 | 
8 | O=C(O)c1ccc(NC(=O)c2ccc3c(c2)C(=O)N(c2ccc(/N=N/c4ccccc4)cc2)C3=O)cc1 [Compound 5564676] |  | ATX inhibition (reduction of ATX-catalyzed FS-3 hydrolysis) (ATX (autotaxin); 10 μM concentration): no reduction levels at all
9 | O=C(O)c1ccc(Oc2ccc(C(=O)c3ccc4c(c3)C(=O)N(c3cccc5ccccc35)C4=O)cc2)cc1 [Compound 5210574] | 31 ± 5 | 
